US20230027075A1, “SULFONAMIDE COMPOUNDS TARGETING CD73 AND ADENOSINE RECEPTORS” (Aurigene Discovery Technologies Limited, priority 2019, published 2023)

Legend:
[1] = molecular target: T1, A2aR (Homo sapiens, UniProt P29274); assay: A2aR biochemical assay (TR-FRET binding, Tag-lite A2aR labelled cells, fluorescent antagonist); conditions: 10 nM fluorescent A2aR antagonist; for inhibition at 20 µM: 20 μM compound, vs DMSO control, read-out: % inhibition at 20 μM (Percent inhibition data in A2aR); for IC50: four-parameter curve fit, read-out: Potency (IC50 values) of selected compounds in A2aR, group
T1 construct: expressed in transfected cells
T1 sequence (P29274 whole entry): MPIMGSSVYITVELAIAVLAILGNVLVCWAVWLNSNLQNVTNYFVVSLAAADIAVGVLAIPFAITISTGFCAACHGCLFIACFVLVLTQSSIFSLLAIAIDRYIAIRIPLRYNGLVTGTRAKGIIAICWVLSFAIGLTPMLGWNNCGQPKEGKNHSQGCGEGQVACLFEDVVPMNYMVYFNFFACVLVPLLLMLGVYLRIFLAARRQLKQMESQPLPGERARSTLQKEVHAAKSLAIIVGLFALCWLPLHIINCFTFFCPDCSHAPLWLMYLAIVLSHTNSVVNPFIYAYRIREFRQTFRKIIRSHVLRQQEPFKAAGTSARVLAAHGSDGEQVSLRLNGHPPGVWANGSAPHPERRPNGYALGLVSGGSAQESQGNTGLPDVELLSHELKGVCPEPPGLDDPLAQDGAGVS
Procedure: The compounds of present invention were assayed for A2aR enzyme binding activity in a TR-FRET based method. Typically, 10 μL of A2aR labelled cells in assay buffer (Tag-lite, 1×) is added to a 384-well plate containing 5 μL of a compound of present invention in final 1% DMSO, serially diluted in 1:5 in a 5-6 point titration. The aforesaid compound and cells are incubated for 30 minutes at room temperature. Next, 5 μL of A2aR antagonist (fluorescent ligand) in assay buffer is added to the plate. The final concentration of A2aR antagonist is 10 nM. Following 30 minutes reaction at room temperature, the plate was read on a plate reader (Ex: 340 nm Em: 615 nm and 665 nm) to measure the binding of test compound to A2aR cells. The results are interpreted as percentage inhibition as presented in Table-2A of binding by the test compound with respect to the DMSO control.

[2] = molecular target: T2, human-CD73 (Trp27-Lys547, His-tag) (Homo sapiens, UniProt P21589); assay: CD73 biochemical assay (colorimetric, Malachite Green phosphate detection); conditions: 2 nM CD73, 50 μM AMP; for inhibition at 20 µM: 20 μM compound, read-out: % inhibition at 20 μM (Percent inhibition data in CD73); for IC50: four-parameter curve fit, read-out: Potency (IC50 values) of selected compounds in CD73, group
T2 construct: human-CD73 (Trp27-Lys547, His-tag); His-tag
T2 sequence (P21589 27-547): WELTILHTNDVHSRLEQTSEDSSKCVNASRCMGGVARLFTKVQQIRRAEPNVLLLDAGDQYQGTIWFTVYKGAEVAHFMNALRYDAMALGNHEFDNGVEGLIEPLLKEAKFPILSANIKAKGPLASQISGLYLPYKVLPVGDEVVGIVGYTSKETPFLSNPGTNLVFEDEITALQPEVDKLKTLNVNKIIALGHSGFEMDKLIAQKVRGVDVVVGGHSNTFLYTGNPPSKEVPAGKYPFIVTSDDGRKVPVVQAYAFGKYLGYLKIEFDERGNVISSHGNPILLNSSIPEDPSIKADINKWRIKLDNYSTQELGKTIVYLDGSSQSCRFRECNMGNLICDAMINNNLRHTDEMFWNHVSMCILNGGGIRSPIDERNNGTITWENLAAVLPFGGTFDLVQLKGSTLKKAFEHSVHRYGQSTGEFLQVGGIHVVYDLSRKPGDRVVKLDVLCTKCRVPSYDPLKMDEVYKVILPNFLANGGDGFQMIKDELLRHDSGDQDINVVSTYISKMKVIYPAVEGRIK
Procedure: A colorimetric-based method was used for assaying compounds of the invention for CD73 enzyme inhibitory activity. Human CD73 catalyzes the conversion of AMP to adenosine with the release of orthophosphate. A Malachite Green Phosphate Detection kit is used to measure the formation of orthophosphate product. […] A compound of the present invention and enzyme are incubated for 30 minutes at room temperature. Next, 20 μL of AMP in assay buffer is added to the plate. The final concentration of CD73 and AMP are 2 nM and 50 μM respectively. Following 30 minutes reaction at room temperature, 20 μL of Malachite reagent is added to all the reaction wells. The formation of green complex formed between Malachite Green, molybdate and free orthophosphate is measured on a plate reader (620 nm).

Row | Compound | inhibition at 20 µM [1] | inhibition at 20 µM [2] | IC50 [2] | IC50 [1]
1 | NC(=O)c1cc(S(=O)(=O)Nc2ccc(CCCNc3nc(N)n4nc(-c5ccco5)nc4n3)cc2F)cc(Cl)c1O [Example A15, 5-(N-(4-(3-((7-amino-2-(furan-2-yl)-[1,2,4]triazolo[1,5-a][1,3,5]triazin-5-yl)amino)propyl)-2-fluorophenyl)sulfamoyl)-3-chloro-2-hydroxybenzamide] | 83% | 96% | 110 to 1000 nM | –
2 | NC(=O)c1cc(S(=O)(=O)Nc2cccc3c2cnn3CCNc2nc(N)n3nc(-c4ccco4)nc3n2)cc(Cl)c1O [Example D2, 5-(N-(1-(2-((7-amino-2-(furan-2-yl)-[1,2,4]triazolo[1,5-a][1,3,5]triazin-5-yl)amino)ethyl)-1H-indazol-4-yl)sulfamoyl)-3-chloro-2-hydroxybenzamide] | 79% | 62% | > 1000 nM | –
3 | Nc1nc(NCCc2ccc(NS(=O)(=O)c3cc(Cl)c4[nH]ccc(=O)c4c3)cc2)nc2nc(-c3ccco3)nn12 [Example B3, N-(4-(2-((7-amino-2-(furan-2-yl)-[1,2,4]triazolo[1,5-a][1,3,5]triazin-5-yl)amino)ethyl)phenyl)-8-chloro-4-oxo-1,4-dihydroquinoline-6-sulfonamide] | 88% | 9% | – | –
4 | NC(=O)c1cc(S(=O)(=O)Nc2ccc(CCNc3nc(N)n4nc(-c5ccco5)nc4n3)c(O)c2)cc(Cl)c1O [Example A5, 5-(N-(4-(2-((7-amino-2-(furan-2-yl)-[1,2,4]triazolo[1,5-a][1,3,5]triazin-5-yl)amino)ethyl)-3-hydroxyphenyl)sulfamoyl)-3-chloro-2-hydroxybenzamide] | 84% | 99% | 110 to 1000 nM | < 25 nM
5 | COc1c(Cl)cc(S(=O)(=O)Nc2ccc(CCCNc3nc(N)n4nc(-c5ccco5)nc4n3)cc2)cc1C(N)=O [Example A16, 5-(N-(4-(3-((7-amino-2-(furan-2-yl)-[1,2,4]triazolo[1,5-a][1,3,5]triazin-5-yl)amino)propyl)phenyl)sulfamoyl)-3-chloro-2-methoxybenzamide] | 83% | 63% | – | –
6 | NC(=O)c1cc(S(=O)(=O)Nc2ccc(NCCNc3nc(N)n4nc(-c5ccco5)nc4n3)cc2)cc(Cl)c1O [Example C1, 5-(N-(4-((2-((7-amino-2-(furan-2-yl)-[1,2,4]triazolo[1,5-a][1,3,5]triazin-5-yl)amino)ethyl)amino)phenyl)sulfamoyl)-3-chloro-2-hydroxybenzamide] | 81% | 100% | 110 to 1000 nM | < 25 nM
7 | NC(=O)c1cc(S(=O)(=O)Nc2ccc(CNc3nc(N)n4nc(-c5ccco5)nc4n3)cc2)cc(Cl)c1O [Example A2, 5-(N-(4-(((7-amino-2-(furan-2-yl)-[1,2,4]triazolo[1,5-a][1,3,5]triazin-5-yl)amino)methyl)phenyl)sulfamoyl)-3-chloro-2-hydroxybenzamide] | 80% | 97% | 110 to 1000 nM | > 50 nM
8 | NC(=O)c1cc(S(=O)(=O)Nc2ccc(CCNc3cc(N)n4nc(-c5ccco5)nc4n3)nc2)cc(Cl)c1O [Example E2, 5-(N-(6-(2-((7-amino-2-(furan-2-yl)-[1,2,4]triazolo[1,5-a]pyrimidin-5-yl)amino)ethyl)pyridin-3-yl)sulfamoyl)-3-chloro-2-hydroxybenzamide] | 85% | 94% | 110 to 1000 nM | –
9 | Nc1nc(NCCc2ccc(NS(=O)(=O)c3cc(Cl)c4c(c3)C(Cl)(Cl)C(=O)N4)cc2)nc2nc(-c3ccco3)nn12 [Example B2, N-(4-(2-((7-amino-2-(furan-2-yl)-[1,2,4]triazolo[1,5-a][1,3,5]triazin-5-yl)amino)ethyl)phenyl)-3,3,7-trichloro-2-oxoindoline-5-sulfonamide] | 79% | 39% | – | –
10 | NC(=O)c1cc(S(=O)(=O)Nc2ccc(CCNc3nc(N)n4nc(-c5ccco5)nc4n3)c(F)c2)cc(Cl)c1O [Example A6, 5-(N-(4-(2-((7-amino-2-(furan-2-yl)-[1,2,4]triazolo[1,5-a][1,3,5]triazin-5-yl)amino)ethyl)-3-fluorophenyl)sulfamoyl)-3-chloro-2-hydroxybenzamide] | 79% | 98% | 110 to 1000 nM | –
11 | CN(CCCc1ccc(NS(=O)(=O)c2cc(Cl)c(O)c(C(N)=O)c2)cc1)c1nc(N)n2nc(-c3ccco3)nc2n1 [Example A17, 5-(N-(4-(3-((7-amino-2-(furan-2-yl)-[1,2,4]triazolo[1,5-a][1,3,5]triazin-5-yl)(methyl)amino)propyl)phenyl)sulfamoyl)-3-chloro-2-hydroxybenzamide] | 82% | 95% | 110 to 1000 nM | –
12 | NC(=O)c1cc(S(=O)(=O)Nc2ccc(CCCOc3cc(N)n4nc(-c5ccco5)nc4n3)cc2)cc(Cl)c1O [Example A21, 5-(N-(4-(3-((7-amino-2-(furan-2-yl)-[1,2,4]triazolo[1,5-a]pyrimidin-5-yl)oxy)propyl)phenyl)sulfamoyl)-3-chloro-2-hydroxybenzamide] | 82% | 98% | 110 to 1000 nM | –
13 | NC(=O)c1cc(S(=O)(=O)Nc2ccc(CCCNc3cc(N)n4nc(-c5ccco5)nc4n3)c(F)c2)cc(Cl)c1O [Example A22, 5-(N-(4-(3-((7-amino-2-(furan-2-yl)-[1,2,4]triazolo[1,5-a]pyrimidin-5-yl)amino)propyl)-3-fluorophenyl)sulfamoyl)-3-chloro-2-hydroxybenzamide] | 81% | 95% | < 100 nM | –
14 | COC(=O)[C@@H](NC(=O)Oc1c(Cl)cc(S(=O)(=O)Nc2ccc(CCCNc3nc(N)n4nc(-c5ccco5)nc4n3)cc2)cc1C(N)=O)C(C)C [Example A25, Methyl ((4-(N-(4-(3-((7-amino-2-(furan-2-yl)-[1,2,4]triazolo[1,5-a][1,3,5]triazin-5-yl)amino)propyl)phenyl)sulfamoyl)-2-carbamoyl-6-chlorophenoxy)carbonyl)valinate] | 81% | 99% | < 100 nM | –
15 | Nc1nc(NCCc2ccc(NS(=O)(=O)c3ccc(O)c(C(F)(F)F)c3)cc2)nc2nc(-c3ccco3)nn12 [Example A10, N-(4-(2-((7-amino-2-(furan-2-yl)-[1,2,4]triazolo[1,5-a][1,3,5]triazin-5-yl)amino)ethyl)phenyl)-4-hydroxy-3-(trifluoromethyl)benzenesulfonamide] | 88% | 17% | – | –
16 | NC(=O)c1cc(S(=O)(=O)Nc2ccc(CCCNc3cc(N)n4nc(-c5ccco5)nc4n3)cc2F)cc(Cl)c1O [Example A23, 5-(N-(4-(3-((7-amino-2-(furan-2-yl)-[1,2,4]triazolo[1,5-a]pyrimidin-5-yl)amino)propyl)-2-fluorophenyl)sulfamoyl)-3-chloro-2-hydroxybenzamide] | 78% | – | – | > 50 nM
17 | NC(=O)c1cc(S(=O)(=O)Nc2ccc(CCCOc3nc(N)n4nc(-c5ccco5)nc4n3)cc2)cc(Cl)c1O [Example A12, 5-(N-(4-(3-((7-amino-2-(furan-2-yl)-[1,2,4]triazolo[1,5-a][1,3,5]triazin-5-yl)oxy)propyl)phenyl)sulfamoyl)-3-chloro-2-hydroxybenzamide] | 72% | 99% | < 100 nM | > 50 nM
18 | NC(=O)c1cc(S(=O)(=O)Nc2cccc(NCCNc3nc(N)n4nc(-c5ccco5)nc4n3)c2)cc(Cl)c1O [Example C2, 5-(N-(3-((2-((7-amino-2-(furan-2-yl)-[1,2,4]triazolo[1,5-a][1,3,5]triazin-5-yl)amino)ethyl)amino)phenyl)sulfamoyl)-3-chloro-2-hydroxybenzamide] | 85% | – | – | –
